Measured values as given in patent US20220387544A1, “NOVEL THERAPEUTIC USE” (Artios Pharma Limited, priority 2019, published 2022).

Key:
Assay type in all cases: cell-based
[1] = system: Parental and REV7 KO SUM149 cells; assay: Clonogenic survival assay (ICR), SUM149 REV7 KO clones; conditions: REV7 KO clones vs parental SUM149, 14 days
Protocol: Clonogenic survival assays were performed as previously described (Edwards et al Nature (2008) 451, 1111-1115; Farmer et al Nature (2005) 434, 917-921). For measurement of sensitivity to Compound A inhibitor, exponentially growing cells were seeded in six-well plates at a concentration of 1000-2000 cells per well. For Compound A, cells were continuously exposed to the drug with media and drug replaced every 72 h. After 14 days, cells were fixed and stained with sulphorhodamine-B (Sigma) and colonies were counted. SFs were calculated and drug sensitivity curves plotted as previously described (Farmer et al Nature (2005) 434, 917-921).
Parental or REV7 KO SUM149 cells were seeded into 6 well plates and incubated overnight. The cells were then treated with a serial dilution of Polθ inhibitor or olaparib for 14 days, fixed, and stained with sulphorhodamine B. The colonies in each well were counted and normalised survival data plotted to generate a dose-response curve.

[2] = system: parental and SHLD2 KO HCC1395 cells; assay: Colony formation assay, HCC1395; conditions: SHLD2 KO vs parental HCC1395 cells, colony solubilisation protocol
Protocol: (§1) 1 mL of cells were seeded per well in a 24-well plate in triplicate and incubated overnight at 37° C. Cells were treated with a seven-point dose response curve with a one-in-three serial dilution of compound for the timepoints listed in Table 5. For MDA-MB-436 cells media was replenished every five days.
(§2) Cells were fixed with 70% ethanol for 20 minutes at room temperature with shaking. Cells were then stained with 0.04% Crystal Violet (Sigma Aldrich) for 20 minutes at room temperature with shaking. Cells were washed 6 times with water and air-dried overnight.
(§3) Plates were imaged using a Gelcount (Oxford Optronix), and colonies were counted using parameters optimized for each cell line. […] Colonies were solubilized using 10% acetic acid (VWR) for 30 minutes, absorbance at 595 nm was read using the Clariostar plate reader (BMG Labtech), and blank correction was applied. Relative Survival was calculated by normalization of compound treated wells to DMSO treated wells.
The effect of a DNA polymerase theta […] inhibitor (Compound A) and the PARP inhibitor olaparib on the survival of parental and SHLD2 deleted (SHLD2 KO) HCC1395 cells was investigated by colony formation assay. Briefly, each population was seeded at low density, incubated with different concentrations of the compound and the relative survival normalized to untreated cells was measured with the colony solubilisation protocol.

[3] = system: RPE1 TP53-/-BRCA1-/-cells; assay: siRNA screen for Compound A sensitivity in BRCA1 defective RPE1; conditions: for Drug Effect (DE) Z-score: BRCA1 defective RPE1
Source text: (§4) An siRNA library was purchased from Dharmacon. Each well contained a SMART pool of four distinct siRNA species targeting different sequences of the target transcript, as well as individual siRNA targeting components of the Shieldin complex. Each plate was supplemented with negative siCONTROL (12 wells; Dharmacon) and positive control (four wells, siPLK1, Dharmacon). RNAi screening conditions were optimized and raw CellTitre-Glo (Promega) luminescent viability readings were generated as previously described (Lord et al DNA Repair (2008) 7, 2010-2019). Compound A or vehicle (DMSO) was added 24 h after transfection at 5 μM (CAL51) or 10 μM (RPE TP53-/-BRCA1-defective) concentration in media and cells were exposed for 5 days. Statistical analysis of the siRNA screen was performed as described elsewhere (Lord et al DNA Repair (2008) 7, 2010-2019). In brief, luminescence values from CellTitre-Glo assays in Compound A and DMSO exposed cells were log2 transformed and then normalized to plate median (PM) effects. Drug Effect (DE) scores were calculated from PM normalized data using the equation: DE=(log2 PM normalized signal of siRNA in the presence of Compound A)—(log2 PM normalized signal of siRNA in the absence of Compound A). DE values were then Z-score standardized according to screen median and median absolute deviation values.
To discover genes that are synthetic lethal with Polθ inhibitor in cells lacking DSBR through homologous recombination, an siRNA screen using 1418 siRNAs was performed using BRCA1 defective RPE1 TP53-/-BRCA1-/-cells. The screen was performed and analysed as described in FIG. 8 for the CAL51 screen. REV7 and SHLD2 (FAM35A) were two of the top hits (FIG. 8(a)), confirming the link between SHLD component defects and Polθ inhibitor sensitivity.

[4] = system: CAL51 breast cancer cells; assay: siRNA screen for Compound A sensitivity in CAL51
Source text: as §4
To discover genes that are synthetic lethal with Polθ inhibitors, an siRNA screen using 1280 siRNAs was performed using CAL51 breast cancer cells. The cells were transfected with siRNA SMARTPools in a 384 well plate arrayed format then, twenty-four hours later, exposed to either DMSO or Compound A. Cells were then continuously cultured in the presence of Compound A or DMSO for a further five days, at which point the viability of cells was measured using CellTitre-Glo reagent (a luminescence assay measuring cellular ATP levels). Luminescence values from each well of the 384 well plate were log2 transformed and then normalized to the median signal on each plate (to account for plate to plate variation). By comparing normalized values for each siRNA SMARTPool in DMSO and Compound A-exposed cells, the effect of each siRNA on Compound A sensitivity was calculated, being expressed as a Drug Effect (DE) Z score.

[5] = system: parental and SHLD2 KO MDA-MB-436 cells; assay: Colony formation assay, MDA-MB-436; conditions: SHLD2 KO vs parental MDA-MB-436 cells, colony solubilization protocol
Protocol: as §1, §2, §3
The effect of a DNA polymerase theta (Polθ) inhibitor (Compound A) and the PARP inhibitor olaparib on the survival of parental and SHLD2 deleted (SHLD2 KO) MDA-MB-436 cells was investigated by colony formation assay. Briefly, each population was seeded at low density, incubated with different concentrations of the compound and the relative survival normalized to untreated cells was measured with the colony solubilization protocol.

[6] = non-targeting siRNA Allstar control

How did the “sensitivity by reduction in number of colonies” value [1] turn out when `Cc1cccc(N(C)C(=O)[C@@H]2[C@H](O)CCN2c2nc(C)cc(C(F)(F)F)c2C#N)c1` [Compound A, (2S,3R)-1-(3-cyano-6-methyl-4-(trifluoromethyl)pyridin-2-yl)-3-hydroxy-N-methyl-N-(m-tolyl)pyrrolidine-2-carboxamide] was run?
The value was “increased sensitivity”.

And the “sensitivity by relative survival” value [2]?
The value was “significantly more sensitive”.

And the “sensitivity caused by siRNAs targeting FAM35A or REV7 (DE<−2)” value ([3]; BRCA1 defective RPE1 cells, 10 μM, 5 days)?
Its value is “caused sensitivity”.

And the “Drug Effect (DE) Z-score” value [3, 6]?
The value was 1.3.

And the “Drug Effect (DE) Z-score” value ([3]; non-targeting siRNA siCON1)?
The value was −0.8.

And the “Drug Effect (DE) Z-score” value ([3]; non-targeting siRNA siCON2)?
Its value is −0.6.

And the “Drug Effect (DE) Z-score” value [4, 6]?
Its value is 1.0.

And the “Drug Effect (DE) Z-score” value ([4]; non-targeting siRNA siCON1)?
Its value is 0.8.

What about the “Drug Effect (DE) Z-score” value ([4]; non-targeting siRNA siCON2) of the same compound?
The value was 1.0.

And the “Drug Effect (DE) Z-score” value ([4]; siRNA pool targeting REV7, 5 μM, 5 days, median of triplicate screens)?
The value was −2.88.

And the “sensitivity by relative survival” value [5]?
The value was “significantly more sensitive”.
